According to patent US10544156B2, “Hemi-synthetic trilobine analogs for use as a drug” (PIERRE FABRE MEDICAMENT, priority 2015, dated 2020):
Read-outs that look alike come from different tables or passages of the source.

Assays:
[1] = biological target: T1, human C-terminal DNMT3A (623-908a.a.) (Homo sapiens, UniProt Q9Y6K1); assay: hDNMT3A assay (restriction-based fluorescence assay); type: biochemical; conditions: for inhibition at 10 µM: read-out: hDNMT 3A inhibition, Inhibition (%) 10 μM; for inhibition at 32 µM: read-out: hDNMT 3A inhibition, Inhibition (%) 32 μM
T1 construct: The human C-terminal DNMT3A (623-908a.a.); made in house
Description: hDNMT3A enzyme inhibition was adapted from the restriction-based fluorescence assay protocol as described in the literature (Ceccaldi et al. Chem Bio Chem 2011, 12, 1337-1345). Briefly, a 5′-labelled biotin oligonucleotide is hybridized to its complementary strand labelled with 6-carboxyfluorescein at the 3′-end into a 384 well microplate (black Optiplates; Perkin Elmer) pre-coated with avidin. The duplex contains a unique CpG site overlapping with a restriction site of a methylation sensitive restriction enzyme. The human C-terminal DNMT3A (623-908a.a.), produced as described in (Gros et al. Nucl. Acids Res. 2013, 41(19):e185), was added in each well (200 ng/well) and mixed with the chemical compounds at desired concentrations and freshly prepared SAM (20 μM final concentration) to start the reaction in a total volume of 50 μL. After 1 hour incubation at 37° C. each well were washed three times with PBS, Tween-20 0.05%, NaCl (500 mM) and three more times with PBST. Specific fluorescent signals were detected with the methylation-sensitive restriction enzyme HpyCH4IV (NEB) as described and measured on a Perkin Elmer Envision detector. The percentage of inhibition is reported. The formula used to calculate the percentage of inhibition is [(X−Y)/X]×100, where X is the signal determined in the absence of the inhibitor and Y is the signal obtained in the presence of the inhibitor. The concentration at which 50% of efficacy of inhibition is observed (EC50) was determined by analysis of a concentration range of the tested compound in triplicates. The non-linear regression fittings with sigmoidal dose-response (variable slope) were performed with GraphPad Prism 4.03 (GraphPad Software).

[2] = test system: P16 promoter in colon cancer cells HCT116; assay: C5 DNA methylation analysis of CDKN2A (P16) promoter by COBRA; type: cell-based, human; conditions: at 0.1 μM
Procedure: Cancer cell lines (colon HCT116 or leukaemia KG1) were treated with the compounds as indicated in the Data Tables and then analysed as following.
DNA was isolated from cultured cells using the DNeasy Blood and Tissue Kit according to the manufacturer's specifications (Qiagen). DNA bisulphite conversion was performed on 2 μg of DNA using the EZ DNA Methylation-Gold Kit according to the manufacturer's specifications (Zymo Research) and bisulfited DNA was eluted with 10 μL of water.
Two different techniques were used to analyse the DNA methylation profile after bisulfite conversion of genomic DNA: (A) cloning and sequencing or (B) COBRA. The primers for each promoter are specified in Table 4.
This technique is a variation of bisulfite sequencing and combines bisulfite conversion based polymerase chain reaction with restriction digestion. DNA methylation levels are easily and quickly measured at fewer CpG sites than bisulfite-cloning-sequencing.
DNA amplification was set up with 100 ng eluted bisulfited DNA in 50 μL PCR reaction containing 1×PCR buffer, 2.5 mM MgCl2, 0.3 mM dNTPs, 400 nM each primer and 1.25 units EpiTaq HS (Takara) on C1000 Touch™ thermal cycler by 98° C. for 10 sec, 55° C. for 30 sec, 72° C. for 30 sec×40 cycles. 20 μL of PCR amplicons were digested in 30 μL by 2 units of BsiEI at 60° C. for 90 min. DNA fragments were migrated by 2% agarose gel electrophoresis and each band was quantified by Image Lab Software v2.0 (BioRad Laboratories).

[3] = test system: HCT116 (colorectal cancer); assay: Anti-proliferative activity (ATPLite); type: cell-based; conditions: Homo sapiens, HCT-116; daily treatment, cell viability by ATPLite; read-out: Antiproliferative activity: IC50 (μM) HCT116 (colorectal cancer)
Procedure: (§1) To measure the anti-proliferative properties of tested molecules, 2×10^4 cells are seeded at day 0 in a 96 wells plate. The compounds to be tested, stored at −20° C. as 10^−2 M stock solution in 100% DMSO, are freshly diluted on day 1 in the cell medium, before adding a dose range of 3.2 nM to 10 μM to the cells. Cells are treated everyday and cell viability assessed after 3 days or 7 days of treatment. The cell viability is assessed using the ATPLite kit from Perkin (ATPlite 1 Step Luminescence Assay System, ref 3016739), following the provider instructions. The raw data are analyzed with GraphPad Prism software (v4.03) to generate IC50 values corresponding to the compound concentrations giving 50% reduction in cell viability. The values presented are the mean results of at least two independent experiments. The standard errors are indicated.

KG-1 (leukemia) = assay: Anti-proliferative activity (ATPLite); type: cell-based; conditions: Homo sapiens; daily treatment, cell viability by ATPLite; read-out: Antiproliferative activity: IC50 (μM) KG-1 (leukemia)
Procedure: as §1

WM266-4 (melanoma) = assay: Anti-proliferative activity (ATPLite); type: cell-based; conditions: Homo sapiens, WM 266-4; two treatments instead of three; cell viability by ATPLite; read-out: Antiproliferative activity: IC50 (μM) WM266-4 (melanoma)
Procedure: as §1

[4] = concentration at which 50% of efficacy of inhibition is observed, read-out: EC50 (μM), hDNMT 3A inhibition
[5] = interval line below the EC50 of the same compound, read-out: EC50 (μM), range given

T1 sequence (Q9Y6K1 627-912 limits assumed): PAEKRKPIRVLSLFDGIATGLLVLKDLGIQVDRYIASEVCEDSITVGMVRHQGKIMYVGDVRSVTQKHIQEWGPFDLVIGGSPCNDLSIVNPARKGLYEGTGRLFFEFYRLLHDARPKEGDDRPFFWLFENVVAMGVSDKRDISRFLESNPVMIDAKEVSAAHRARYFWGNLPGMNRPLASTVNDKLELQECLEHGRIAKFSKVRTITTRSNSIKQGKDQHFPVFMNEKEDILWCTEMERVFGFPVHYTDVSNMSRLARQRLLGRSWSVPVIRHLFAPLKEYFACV

Row | Compound | EC50 [1, 4] [µM] | EC50 [1, 5] [µM] | inhibition at 10 µM [1] [%] | inhibition at 32 µM [1] [%] | Demethylation (COBRA) P16/HCT116 ([2]; after 7 days) | IC50 [3] [µM] | IC50 (KG-1 (leukemia)) [µM] | IC50 (WM266-4 (melanoma)) [µM] | Demethylation (COBRA) P16/HCT116 ([2]; after 3 days) [% after 3 days] | Demethylation (COBRA) P16/HCT116 ([2]; after 21 days) [% after 21 days]
1 | CNC(=O)N1CCc2cc(OC)c3c4c2[C@@H]1Cc1ccc(cc1)Oc1cc(ccc1OC)C[C@H]1c2cc(c(cc2CCN1C)O3)O4 [Product 44] | 3.96 | 3.04 to 5.17 | 82 | 96 | 0% after 7 days (at 0.1 μM) | 1.88 ± 0.03 | 4.2 ± 0.05 | 12 ± 3 |  | 
2 | CCN(CC)CCCNC(=S)N1CCc2cc3c4cc2[C@@H]1Cc1ccc(OC)c(c1)Oc1ccc(cc1)C[C@H]1c2c(cc(OC)c(c2O4)O3)CCN1C(=S)NCCCN(CC)CC [Product 41] | 0.557 to 0.91 |  | 94 | 95 | 0% after 7 days (at 0.1 μM) | 0.96 ± 0.02 | 5.3 ± 0.4 | 4.4 ± 1.5 |  | 
3 | COc1ccc2cc1Oc1ccc(cc1)C[C@@H]1NCCc3cc(OC)c4c(c31)Oc1cc3c(cc1O4)CCN(C)[C@H]3C2 [Trilobine (1), trilobine] | 3.8 | 3.21 to 4.49 | 88 | 96 | −52% after 7 days | 1.19 ± 0.02 | 2.1 ± 0.8 | 3.2 ± 0.8 | −37 | −53
